Experimental data published in patent EP4741379A1, “CLASS OF PROGRAMMED CELL DEATH INHIBITORS, PREPARATION METHOD THEREFOR AND USE THEREOF” (SHANGHAI INSTITUTE OF ORGANIC CHEMISTRY, CHINESE ACADEMY OF …, priority 2023, dated 2025).
Like-named read-outs stand apart in the source and are kept apart here.

Assays:
[1] = test system: L929 cells; test: TNF-induced programmed necrosis of L929 cells (Cell Titer-Glo viability); assay type: cell-based, mouse; settings: Mus musculus
Experimental: (§1) The biological test protocol is adopted to test effects of the compound on TNF-induced programmed necrosis of FADD (Fas-associated death domain)-deficient Jurkat cells and L929 cells.
(§2) Two different stimulation methods were used: treating with tumor necrosis factor (TNFα) alone, or treating with TNFα in combination of mitochondrial-derived cysteine-aspartate activator (SMAC) SM164. Cell viability was determined by measuring chemiluminescence values, thereby assessing the bioactivity of the compounds in inhibiting programmed cell necrosis.
(§3) Method: FADD-deficient Jurkat cells: FADD-deficient Jurkat cells (human peripheral blood leukemia T cell line) were cultured in vitro. After reaching logarithmic growth phase, cells were collected and centrifuged at 1000 rpm for 5 minutes. A supernatant was discarded. A cell concentration was adjusted to 2.5×10^5/mL, and cells were seeded into a 384-well plate at 40 µL per well. In the corresponding wells, 5 µL of SM164 (50 nM) and compounds diluted with cell culture medium were added. After pre-treatment at 37°C for 1 hour, 5 µL of TNFα (50 ng/mL) diluted with cell culture medium was added to each well as a stimulation group, while 5 µL of culture medium was added as a control group. After the plate was incubated in a cell culture incubator (37°C, 5% CO2) for 14 hours, 15 µL of Cell Titer-Glo solution was added to each well. Then, the plate was incubated at room temperature for 30 minutes. Luminescence was measured to assess intracellular ATP levels. Cell viability was set at 100% for unstimulated DMSO control wells. […] The plate was placed in a cell culture incubator (37°C, 5% CO2) and cultured for 12 hours. In the corresponding wells, 5 µL of SM164 (500 nM) and compounds diluted with cell culture medium were added. After pre-treatment at 37°C for 1 hour, 5 µL of TNFα (500 ng/mL) diluted with cell culture medium was added to the wells as a stimulation group, while 5 µL of culture medium was added as a control group. After the plate was incubated in the cell incubator (37°C, 5% CO2) for 14 hours, 15 µL of Cell Titer-Glo solution was added to each well. Then, the plate was incubated at room temperature for 30 minutes, and luminescence was measured to assess intracellular ATP levels. Cell viability was set at 100% for unstimulated DMSO control wells. EC50 values of the compounds were calculated using Prism GraphPad statistical software.

[2] = test system: FADD-deficient Jurkat cells; test: TNF-induced programmed necrosis of FADD-deficient Jurkat cells (Cell Titer-Glo viability); assay type: cell-based, human; settings: Homo sapiens, Jurkat
Experimental: as §1, §2, §3

[3] = L929, stimulation with TNFα + SM164, read-out: EC50 (nM) L929 cells (mouse-derived) TNFα+ SM164
[4] = L929, stimulation with TNFα alone, read-out: EC50 (nM) L929 cells (mouse-derived) TNFα
[5] = stimulation with TNFα + SM164, read-out: EC50 (nM) FADD^-/- Jurkat cells (human-derived) TNFα+ SM164
[6] = stimulation with TNFα alone, read-out: EC50 (nM) FADD^-/- Jurkat cells (human-derived) TNFα
[7] = L929, read-out: EC50 (nM) L929 cells (mouse-derived) TNFα
[8] = read-out: EC50 (nM) FADD^-/- Jurkat cells (human-derived) TNFα

Question: `CN1C(=O)[C@@H](NC(=O)c2n[nH]c(Cc3ccccc3)n2)COc2ccccc21` [GSK2982772, reference compound] was tested. Which EC50 [1, 3] did it give?
Answer: The EC50 was greater than 1000 nM.

Question: And the EC50 [1, 4]?
Answer: Its EC50 is greater than 1000 nM.

Question: And the EC50 [2, 5]?
Answer: Its EC50 is 4 nM.

Question: And the EC50 [2, 6]?
Answer: Its EC50 is 0.7 nM.

Question: What does the source list for `C[C@H](NC(=O)c1nnn(C)c1Cc1ccccc1)c1ccc(C#Cc2nccn2C)cc1` [IRCBC-002]?
Answer: EC50 [1, 7]: 55.7 nM; EC50 [2, 8]: 0.392 nM

Question: For `C[C@H](NC(=O)c1nnn(C)c1Cc1ccccc1)c1ccc(C#Cc2ccnn2C)cc1` [IRCBC-003], which EC50 [1, 7] is on record?
Answer: The EC50 was 1.11 nM.

Question: And the EC50 [2, 8]?
Answer: Its EC50 is 0.095 nM.

Question: How did the EC50 [1, 7] turn out when `C[C@H](NC(=O)c1nnn(C)c1Cc1ccccc1)c1ccc(C#Cc2ccn(C)n2)cc1` [IRCBC-004] was run?
Answer: Its EC50 is 0.558 nM.

Question: And the EC50 [2, 8]?
Answer: The EC50 was 0.019 nM.

Question: How did the EC50 [1, 3] turn out when `C[C@H](NC(=O)c1nnn(C)c1Cc1ccccc1)c1ccc(C#Cc2cnc[nH]2)cc1` [IRCBC-005] was run?
Answer: Its EC50 is 3.42 nM.

Question: And the EC50 [1, 4]?
Answer: The EC50 was 2.09 nM.

Question: And the EC50 [2, 5]?
Answer: Its EC50 is 1.12 nM.

Question: What about the EC50 [2, 6] of the same compound?
Answer: The EC50 was 0.019 nM.

Question: Which results are given for `C[C@H](NC(=O)c1nnn(C)c1Cc1ccccc1)c1ccc(C#Cc2ncc[nH]2)cc1` [IRCBC-006]?
Answer: EC50 [1, 7]: 81.9 nM; EC50 [2, 8]: 2.03 nM

Question: Which EC50 [1, 7] does the source give for `C[C@H](NC(=O)c1nnn(C)c1Cc1ccccc1)c1ccc(C#Cc2nccs2)cc1` [IRCBC-007] here?
Answer: Its EC50 is 0.631 nM.

Question: What about the EC50 [2, 8] of the same compound?
Answer: The EC50 was 0.072 nM.

Question: For `C[C@H](NC(=O)c1nnn(C)c1Cc1ccccc1)c1ccc(C#Cc2ncco2)cc1` [IRCBC-008], which EC50 [1, 7] is on record?
Answer: The EC50 was 1.86 nM.

Question: What about the EC50 [2, 8] of the same compound?
Answer: The EC50 was 0.055 nM.

Question: Which EC50 [1, 3] does the source give for `C[C@H](NC(=O)c1nnn(C)c1Cc1ccccc1)c1ccc(C#CC2CCOC2)cc1` (stereo partly drawn) [IRCBC-010] here?
Answer: Its EC50 is 6.71 nM.

Question: What about the EC50 [1, 4] of the same compound?
Answer: Its EC50 is 3.27 nM.

Question: What about the EC50 [2, 5] of the same compound?
Answer: The EC50 was 13.4 nM.

Question: And the EC50 [2, 6]?
Answer: The EC50 was 0.481 nM.

Question: How did the EC50 [1, 7] turn out when `C[C@H](NC(=O)c1nnn(C)c1Cc1cccc(Cl)c1)c1ccc(C#Cc2ccccn2)cc1` [IRCBC-016] was run?
Answer: The EC50 was 5.85 nM.

Question: And the EC50 [2, 8]?
Answer: The EC50 was 1.69 nM.

Question: For `C[C@H](NC(=O)c1cnn(C)c1Cc1cc(F)cc(F)c1)c1ccc(C#Cc2ccccn2)cc1` [IRCBC-033], which EC50 [1, 3] is on record?
Answer: Its EC50 is 4.11 nM.

Question: And the EC50 [1, 4]?
Answer: The EC50 was 0.771 nM.

Question: And the EC50 [2, 5]?
Answer: The EC50 was 1.57 nM.

Question: What about the EC50 [2, 6] of the same compound?
Answer: The EC50 was 0.066 nM.

Question: How did the EC50 [1, 7] turn out when `COC(C)(C)C#Cc1ccc([C@H](C)NC(=O)c2nnn(C)c2Cc2ccccc2)cc1` [IRCBC-036] was run?
Answer: Its EC50 is 13.1 nM.

Question: What about the EC50 [2, 8] of the same compound?
Answer: Its EC50 is 0.222 nM.

Question: What does the source list for `C[C@H](NC(=O)c1nnn(C)c1Cc1ccccc1)c1ccc(C#Cc2cnn(C3CC3)c2)cc1` [IRCBC-041]?
Answer: EC50 [1, 7]: 0.771 nM; EC50 [2, 8]: 0.004 nM

Question: With `C[C@H](NC(=O)c1nnn(C)c1Cc1ccccc1)c1ccc(N2CCN(C)C(=O)C2)cc1` [IRCBC-043] as the compound, how does the EC50 ([1]; L929, stimulation with TNFα + SM164, µM, read-out: EC50 L929 cells (mouse-derived) TNFα+ SM164) read?
Answer: Its EC50 is greater than 1000 nM.

Question: What about the EC50 ([1]; L929, stimulation with TNFα alone, µM, read-out: EC50 L929 cells (mouse-derived) TNFα) of the same compound?
Answer: The EC50 was greater than 1000 nM.

Question: And the EC50 [2, 5]?
Answer: Its EC50 is 5.11 nM.

Question: What about the EC50 [2, 6] of the same compound?
Answer: Its EC50 is 0.683 nM.

Question: Which EC50 [1, 3] does the source give for `C[C@H](NC(=O)c1nnn(C)c1Cc1ccccc1)c1ccc(C#Cc2ncccn2)cc1` [IRCBC-046] here?
Answer: The EC50 was 0.43 nM.

Question: And the EC50 [1, 4]?
Answer: The EC50 was 0.203 nM.

Question: And the EC50 [2, 5]?
Answer: Its EC50 is 0.087 nM.

Question: What about the EC50 [2, 6] of the same compound?
Answer: Its EC50 is 0.001 nM.

Question: Which EC50 [1, 7] does the source give for `C[C@H](NC(=O)c1nnn(C)c1Cc1ccccc1)c1ccc(C#Cc2cnccn2)cc1` [IRCBC-048] here?
Answer: Its EC50 is 2.93 nM.

Question: What about the EC50 [2, 8] of the same compound?
Answer: Its EC50 is 0.018 nM.

Question: Which results are given for `C[C@H](NC(=O)c1nnn(C)c1Cc1ccccc1)c1ccc(C#Cc2ccc(F)cn2)cc1` [IRCBC-049]?
Answer: EC50 [1, 7]: 0.118 nM; EC50 [2, 8]: 0.002 nM

Question: How did the EC50 [1, 7] turn out when `C[C@H](NC(=O)c1nnn(C)c1Cc1ccccc1)c1ccc(C#Cc2ccc(Cl)cn2)cc1` [IRCBC-050] was run?
Answer: Its EC50 is 0.105 nM.

Question: What about the EC50 [2, 8] of the same compound?
Answer: Its EC50 is 0.001 nM.

Question: Which EC50 [1, 3] does the source give for `C[C@H](NC(=O)c1nnn(C)c1Cc1ccccc1)c1ccc(C#Cc2ccc(C#N)cn2)cc1` [IRCBC-051] here?
Answer: The EC50 was 4.53 nM.

Question: What about the EC50 [1, 4] of the same compound?
Answer: Its EC50 is 1.62 nM.

Question: And the EC50 [2, 5]?
Answer: Its EC50 is 0.845 nM.

Question: What about the EC50 [2, 6] of the same compound?
Answer: Its EC50 is 0.006 nM.

Question: Which results are given for `COc1ccc(C#Cc2ccc([C@H](C)NC(=O)c3nnn(C)c3Cc3ccccc3)cc2)nc1` [IRCBC-052]?
Answer: EC50 [1, 7]: 0.068 nM; EC50 [2, 8]: 0.001 nM

Question: `C[C@H](NC(=O)c1nnn(C)c1Cc1ccccc1)c1ccc(C#Cc2ccc(N(C)C)cn2)cc1` [IRCBC-053] was tested. Which EC50 [1, 3] did it give?
Answer: Its EC50 is 0.011 nM.

Question: What about the EC50 [1, 4] of the same compound?
Answer: Its EC50 is 0.004 nM.

Question: What about the EC50 [2, 5] of the same compound?
Answer: The EC50 was 0.001 nM.

Question: Which EC50 [1, 7] does the source give for `C[C@H](NC(=O)c1nnn(C)c1Cc1ccccc1)c1ccc(C#Cc2ccncc2F)cc1` [IRCBC-054] here?
Answer: The EC50 was 0.103 nM.

Question: What about the EC50 [2, 8] of the same compound?
Answer: Its EC50 is 0.001 nM.

Question: Which EC50 [1, 3] does the source give for `Cn1nnc(C(=O)NCc2ccc(C#Cc3ccccn3)nc2)c1Cc1ccccc1` [IRCBC-057] here?
Answer: Its EC50 is 35.5 nM.

Question: What about the EC50 [1, 4] of the same compound?
Answer: Its EC50 is 12.6 nM.

Question: What about the EC50 [2, 5] of the same compound?
Answer: The EC50 was 3.9 nM.

Question: What about the EC50 [2, 6] of the same compound?
Answer: The EC50 was 0.537 nM.
